Reference: PubChem BioAssay (NCI)
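Cultured in 96-well plates, cells were exposed to test compound for 48 hours across five concentrations. GI50: concentration for 50% inhibition of growth. TGI denotes the concentration required for complete inhibition of growth.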

The compounds below were run on OVCAR-3 ovarian (assay: DTP human tumour cell line panel, 48 h).
Work on COC(=O)c1c/c(=N\NC(=O)CC(=O)Nc2ccccc2OC)c2ccccc2o1 yielded a TGI greater than 100 µM. NC(CCC(=O)NC(CSSCCCCS(=O)O)C(=O)NCC(=O)O)C(=O)O (configuration not stated) was tested, and the TGI was greater than 100 µM. For C[C@@H]1OC(O)[C@@H](F)[C@H](O)[C@@H]1O (some centres not stated), the GI50 was greater than 100 µM and the TGI was greater than 100 µM. Work on COC12C=C(C)C(CC1)CC2C(=O)O (configuration not stated) yielded a TGI greater than 100 µM. OCC(O)CC[CH2][Sn]([Br])([c]1ccccc1)[c]1ccccc1 (configuration not stated) was tested, and the GI50 was greater than 100 µM and the TGI was greater than 100 µM. Work on NC(=O)c1ccc(I)c(N)c1 yielded a GI50 greater than 100 µM and a TGI greater than 100 µM. CCc1ccc(/C=C\c2cc(OC)c(OC)c(OC)c2)cc1 was tested, and the TGI was 0.206 µM. O=c1c2cc([N+](=O)[O-])ccc2sc2ccsc12 gave a TGI greater than 100 µM. COc1ccc(C2=CC3CCC2C3)cc1 (configuration not stated) gave a TGI greater than 100 µM. COc1ccc(/C=C/CN(C)CCc2ccccc2)cc1OC gave a TGI greater than 100 µM. Compound O=C1CCCCN1CCCCC#Cc1ccccc1C#Cc1ccc([N+](=O)[O-])cc1 has a GI50 of 10.9 µM and a TGI of 23.6 µM. [Cl-].[Dy+3].[O-]/N=C(\c1ccccc1)c1ccccn1.[O-]/N=C(\c1ccccc1)c1ccccn1.[O-]/N=C(\c1ccccc1)c1ccccn1 showed a GI50 of 24.4 µM and a TGI of 92.6 µM. In the case of NC(=O)C(=O)N/N=C(\CC1(O)C(=O)Nc2ccccc21)c1ccc2ccccc2c1 (configuration not stated), the TGI is reported as 67.3 µM. Work on Cc1cc2c(cc1C)[n+](=O)c(C(=O)C/C(=N/NC(=O)CC#N)C(=O)Nc1ccccc1C(F)(F)F)c(C)n2[O-] yielded a TGI greater than 100 µM. COC(=O)/C(=N/NC(=O)C[N+](C)(C)C)C(C(=O)OC)C(=O)C(=O)Nc1ccc(F)cc1 (configuration not stated) gave a TGI greater than 100 µM. In the case of O=C(c1ccccc1)c1nnc(C(=O)c2ccccc2)nn1, the TGI is reported as greater than 344 µM. In the case of Brc1cccc(C=NC23CC4CC(CC(C4)C2)C3)c1, the TGI is reported as greater than 100 µM. Nc1nc(Cl)c2ncn(Cc3ccc(C45CC6CC(CC(C6)C4)C5)c(O)c3)c2n1 was tested, and the GI50 was 2.32 µM and the TGI was 11.1 µM. In the case of CCC[CH2][Sn]([CH2]CCC)([O]C(=O)c1cccnc1SC)[O]C(=O)c1cccnc1SC, the GI50 is reported as 1.33 µM and the TGI is reported as 2.63 µM. CC[C@@]1(O)C(=O)OCc2c1cc1n(c2=O)Cc2c-1nc1cc3c(cc1c2CCl)OCO3 was tested, and the GI50 was 0.333 µM and the TGI was 3.07 µM. Work on O=C1O[C@@H](c2ccc3c(c2)OCO3)C2C(=O)O[C@@H](c3ccc4c(c3)OCO4)C12 (some centres not stated) yielded a TGI greater than 100 µM. Compound O=C1CCC(=O)N2CCCCN12 has a TGI greater than 100 µM. Work on CC(C)C(=O)NC(=S)Nc1ccc([N+](=O)[O-])cc1C#N yielded a TGI greater than 100 µM. With C/C(CC(=O)Nc1cc(Cl)c(Cl)cc1Cl)=N\NC(N)=O the TGI was greater than 100 µM. With N#Cc1cc([N+](=O)[O-])ccc1NC(=O)C(=O)Nc1n[nH]c(N)n1 the TGI was greater than 100 µM. In the case of O=C(/C=C/c1c(O)ccc2ccccc12)c1cccc(O)c1, the TGI is reported as greater than 100 µM. Work on CC1=NN(C(=O)Nc2ccccc2)C(=O)C2CCC(=O)N12 (configuration not stated) yielded a TGI greater than 100 µM. Oc1ccc(NCc2nc3ccccc3[nH]2)cc1 gave a GI50 of 33.8 µM and a TGI greater than 100 µM. COC(=O)C1Cc2c(n(Cc3ccccc3)c3ccccc23)C(CCC(=O)O)N1C(C)C (configuration not stated) was tested, and the TGI was greater than 100 µM. O=C1c2cc(Cl)ccc2S(=O)(=O)c2c(NCCCNCCO)nc3ccccc3c21 gave a GI50 of 0.478 µM and a TGI of 1.66 µM. CC(C)(C)C1C=C(Sc2ccccc2)C(=O)O1 (configuration not stated) showed a TGI greater than 100 µM. Compound CCC[CH2][Sn]1([CH2]CCC)[O]Cc2nc(C)ccc2[O]1 has a GI50 of 5.05 µM and a TGI of 17 µM. O=c1/c(=C/c2ccco2)sc2nc3ccccc3n12 was tested, and the GI50 was greater than 100 µM and the TGI was greater than 100 µM. O=C1CCC2(c3ccc(F)cc3)Nc3cc(Cl)ccc3N12 (configuration not stated) gave a TGI greater than 100 µM. In the case of O=c1[nH]ncc(Br)c1Br, the GI50 is reported as 1.75 µM and the TGI is reported as 3.18 µM. In the case of C/C(CC(=O)Nc1ccc(C)cc1C)=N/N=C(N)N, the TGI is reported as greater than 100 µM. Work on COc1ccc(-c2cc(=O)c3c(OC)c(OC)c(OC)cc3o2)cc1 yielded a TGI of 94.9 µM.

The compounds below were run on U251 CNS (assay: DTP human tumour cell line panel, 48 h).
COC(=O)c1c/c(=N\NC(=O)CC(=O)Nc2ccccc2OC)c2ccccc2o1 gave a TGI greater than 100 µM. With NC(CCC(=O)NC(CSSCCCCS(=O)O)C(=O)NCC(=O)O)C(=O)O (configuration not stated) the TGI was greater than 100 µM. For C[C@@H]1OC(O)[C@@H](F)[C@H](O)[C@@H]1O (some centres not stated), the GI50 was greater than 100 µM and the TGI was greater than 100 µM. With COC12C=C(C)C(CC1)CC2C(=O)O (configuration not stated) the TGI was greater than 100 µM. Work on OCC(O)CC[CH2][Sn]([Br])([c]1ccccc1)[c]1ccccc1 (configuration not stated) yielded a GI50 greater than 100 µM and a TGI greater than 100 µM. NC(=O)c1ccc(I)c(N)c1 gave a GI50 greater than 100 µM and a TGI greater than 100 µM. O=c1c2cc([N+](=O)[O-])ccc2sc2ccsc12 showed a TGI greater than 100 µM. Work on COc1ccc(C2=CC3CCC2C3)cc1 (configuration not stated) yielded a TGI greater than 100 µM. In the case of COc1ccc(/C=C/CN(C)CCc2ccccc2)cc1OC, the TGI is reported as greater than 100 µM. With O=C1CCCCN1CCCCC#Cc1ccccc1C#Cc1ccc([N+](=O)[O-])cc1 the GI50 was 3.79 µM and the TGI was 14.4 µM. [Cl-].[Dy+3].[O-]/N=C(\c1ccccc1)c1ccccn1.[O-]/N=C(\c1ccccc1)c1ccccn1.[O-]/N=C(\c1ccccc1)c1ccccn1 showed a GI50 of 47.5 µM and a TGI greater than 100 µM. In the case of NC(=O)C(=O)N/N=C(\CC1(O)C(=O)Nc2ccccc21)c1ccc2ccccc2c1 (configuration not stated), the TGI is reported as 76.4 µM. Cc1cc2c(cc1C)[n+](=O)c(C(=O)C/C(=N/NC(=O)CC#N)C(=O)Nc1ccccc1C(F)(F)F)c(C)n2[O-] showed a TGI greater than 100 µM. In the case of COC(=O)/C(=N/NC(=O)C[N+](C)(C)C)C(C(=O)OC)C(=O)C(=O)Nc1ccc(F)cc1 (configuration not stated), the TGI is reported as greater than 100 µM. Work on O=C(c1ccccc1)c1nnc(C(=O)c2ccccc2)nn1 yielded a TGI greater than 344 µM. Brc1cccc(C=NC23CC4CC(CC(C4)C2)C3)c1 gave a TGI greater than 100 µM. Compound Nc1nc(Cl)c2ncn(Cc3ccc(C45CC6CC(CC(C6)C4)C5)c(O)c3)c2n1 has a GI50 of 3.09 µM and a TGI of 12.9 µM. CCC[CH2][Sn]([CH2]CCC)([O]C(=O)c1cccnc1SC)[O]C(=O)c1cccnc1SC gave a GI50 of 0.596 µM and a TGI of 1.84 µM. For CC[C@@]1(O)C(=O)OCc2c1cc1n(c2=O)Cc2c-1nc1cc3c(cc1c2CCl)OCO3, the GI50 was less than 0.01 µM and the TGI was 1.9 µM. Compound O=C1O[C@@H](c2ccc3c(c2)OCO3)C2C(=O)O[C@@H](c3ccc4c(c3)OCO4)C12 (some centres not stated) has a TGI greater than 100 µM. Work on O=C1CCC(=O)N2CCCCN12 yielded a TGI greater than 100 µM. Compound CC(C)C(=O)NC(=S)Nc1ccc([N+](=O)[O-])cc1C#N has a TGI greater than 100 µM. C/C(CC(=O)Nc1cc(Cl)c(Cl)cc1Cl)=N\NC(N)=O was tested, and the TGI was greater than 100 µM. Compound N#Cc1cc([N+](=O)[O-])ccc1NC(=O)C(=O)Nc1n[nH]c(N)n1 has a TGI greater than 100 µM. For O=C(/C=C/c1c(O)ccc2ccccc12)c1cccc(O)c1, the TGI was greater than 100 µM. Compound CC1=NN(C(=O)Nc2ccccc2)C(=O)C2CCC(=O)N12 (configuration not stated) has a TGI greater than 100 µM. In the case of Oc1ccc(NCc2nc3ccccc3[nH]2)cc1, the GI50 is reported as 28.2 µM and the TGI is reported as greater than 100 µM. With COC(=O)C1Cc2c(n(Cc3ccccc3)c3ccccc23)C(CCC(=O)O)N1C(C)C (configuration not stated) the TGI was greater than 100 µM. Compound O=C(O)CNS(=O)(=O)c1ccc(NCc2ccccc2)cc1 has a TGI greater than 100 µM. O=C1c2cc(Cl)ccc2S(=O)(=O)c2c(NCCCNCCO)nc3ccccc3c21 was tested, and the GI50 was 1.62 µM and the TGI was 3.18 µM. CC(C)(C)C1C=C(Sc2ccccc2)C(=O)O1 (configuration not stated) gave a TGI greater than 100 µM. In the case of CCC[CH2][Sn]1([CH2]CCC)[O]Cc2nc(C)ccc2[O]1, the GI50 is reported as 4.73 µM and the TGI is reported as 16.7 µM. Compound O=c1/c(=C/c2ccco2)sc2nc3ccccc3n12 has a TGI greater than 10 µM. O=C1CCC2(c3ccc(F)cc3)Nc3cc(Cl)ccc3N12 (configuration not stated) showed a TGI greater than 100 µM. O=c1[nH]ncc(Br)c1Br was tested, and the GI50 was 1.66 µM and the TGI was 3.02 µM. C/C(CC(=O)Nc1ccc(C)cc1C)=N/N=C(N)N gave a TGI greater than 100 µM. COc1ccc(-c2cc(=O)c3c(OC)c(OC)c(OC)cc3o2)cc1 showed a TGI greater than 100 µM.

These compounds were tested on PC-3 prostate (assay: DTP human tumour cell line panel, 48 h).
With C[C@@H]1OC(O)[C@@H](F)[C@H](O)[C@@H]1O (some centres not stated) the GI50 was greater than 100 µM and the TGI was greater than 100 µM. In the case of Nc1nc(Cl)c2ncn(Cc3ccc(C45CC6CC(CC(C6)C4)C5)c(O)c3)c2n1, the GI50 is reported as 1.73 µM and the TGI is reported as 4.44 µM. CC[C@@]1(O)C(=O)OCc2c1cc1n(c2=O)Cc2c-1nc1cc3c(cc1c2CCl)OCO3 was tested, and the GI50 was 0.0392 µM and the TGI was greater than 36.4 µM. For Oc1ccc(NCc2nc3ccccc3[nH]2)cc1, the GI50 was 33.6 µM and the TGI was greater than 100 µM. In the case of O=C1c2cc(Cl)ccc2S(=O)(=O)c2c(NCCCNCCO)nc3ccccc3c21, the GI50 is reported as 1.53 µM and the TGI is reported as 3.66 µM. O=c1[nH]ncc(Br)c1Br gave a GI50 of 5.45 µM and a TGI of 20.8 µM.

The compounds below were run on EKVX NSCLC (assay: DTP human tumour cell line panel, 48 h).
Compound COC(=O)c1c/c(=N\NC(=O)CC(=O)Nc2ccccc2OC)c2ccccc2o1 has a TGI greater than 100 µM.
